Entries after “also recorded” stand apart in the source; their conditions may differ.
What was measured:
[1] = test system: chronic moist dermatitis (in dogs); conditions: oral tablets; Akitaken, 25 kg
Description: Diagnosis: Chronic moist dermatitis
Therefore, on the next day one tablet containing 0.5 mg of dexamethasone and 1 mg of TRH tartrate was orally administered. […] As an adjunct to the medication, the dog was placed on a controlled regimen.

[2] = Relative clinical effect of ACH (dexamethasone equivalent); conditions: for Equivalent (dexamethasone equivalent): dexamethasone taken as unity
Text: The relative amounts of ACH and TSH-releasing hormones may be determined according to the particular dosage form, the disease to be treated and other factors. Generally speaking, the ratio is about 1 (dexamethasone equivalent): 0.05 to 5, advantageously 0.05 to 2, and especially 0.1 to 1. The preferred ratio in each dosage form is; in the case of injections, about 1 (dexamethasone equivalent): 0.05 to 1, advantageously 0.1 to 1; in the case of oral preparations, about 1 (dexamethasone equivalent): 1 to 5, advantageously 1 to 2; and in the case of topical preparations, infusions and implants, about 1 (dexamethasone equivalent): 0.5 to 5, advantageously 0.5 to 2. The `dexamethasone equivalent` is an index number representing the relative clinical effect of any ACH with the effect of dexamethasone being taken as unity.

[3] = relative clinical effect of ACH; cited from earlier work
eczema (in dogs) = assay: Treatment of eczema in dogs with ointment (Example 2); conditions: hydrophilic ointment 0.1%, externally applied

C[C@@H]1C[C@H]2[C@@H]3CCC4=CC(=O)C=C[C@]4(C)[C@@]3(F)[C@@H](O)C[C@]2(C)[C@@]1(O)C(=O)CO [Dexamethasone, 9α-fluoro-16α-methylprednisolone]
therapeutic response [1]: failed to elicit a response | Equivalent (dexamethasone equivalent) [2]: 1 | Clinical effect [3]: 30.0

C[C@]12C=CC(=O)C=C1CC[C@@H]1[C@@H]2[C@@H](O)C[C@@]2(C)[C@H]1CC[C@]2(O)C(=O)CO [Prednisolone, prednisolone]
Equivalent (dexamethasone equivalent) [2]: 7.5 | Clinical effect [3]: 4.0

C[C@]12CCC(=O)C=C1CC[C@@H]1[C@@H]2[C@@H](O)C[C@@]2(C)[C@H]1CC[C@]2(O)C(=O)CO [Hydrocortisone]
Equivalent (dexamethasone equivalent) [2]: 30 | Clinical effect [3]: 1.0

C[C@@H]1C[C@H]2[C@@H]3CCC4=CC(=O)C=C[C@]4(C)[C@@]3(F)[C@@H](O)C[C@]2(C)[C@@]1(O)C(=O)COP(=O)(O)O [dexamethasone phosphate]
therapeutic result (eczema (in dogs); 4 dogs with exudative eczema): a passing mitigation of inflammation or itchiness; also recorded: substantially no successful therapeutic result was obtained | adverse response (eczema (in dogs); dogs with exudative eczema): an increase in the amount of exudate

C[C@@H]1C[C@H]2[C@@H]3C[C@H](F)C4=CC(=O)C=C[C@]4(C)[C@H]3[C@@H](O)C[C@]2(C)[C@@]1(O)C(=O)CO [Paramethasone, 6α-fluoro-16α-methylprednisolone]
Equivalent (dexamethasone equivalent) [2]: 3 | Clinical effect [3]: 10.0

C[C@]12C=CC(=O)C=C1CC[C@H]1[C@@H]3C[C@@H](O)[C@](O)(C(=O)CO)[C@@]3(C)C[C@H](O)[C@@]12F [Triamcinolone, 9α-fluoro-16α-hydroxyprednisolone]
clinical efficacy / potency compared with dexamethasone [2]: one-sixth | Equivalent (dexamethasone equivalent) [2]: 6 | Clinical effect [3]: 5.0

C[C@H]1C[C@H]2[C@@H]3CCC4=CC(=O)C=C[C@]4(C)[C@@]3(F)[C@@H](O)C[C@]2(C)[C@@]1(O)C(=O)CO [Betamethasone, 9α-fluoro-16α-methylprednisolone]
clinical efficacy / potency compared with dexamethasone [2]: as potent as dexamethasone | Equivalent (dexamethasone equivalent) [2]: 1 | Clinical effect [3]: 30

C[C@H]1C[C@@H]2[C@H]([C@@H](O)C[C@@]3(C)[C@H]2CC[C@]3(O)C(=O)CO)[C@@]2(C)C=CC(=O)C=C12 [Methylprednisolone, 6α-methylprednisolone]
Equivalent (dexamethasone equivalent) [2]: 6 | Clinical effect [3]: 5.0

Reference: US4112073A, “Medicinal composition comprising adrenal cortical hormone and thyroid stimulating hormone releasing hormone” (Takeda Chemical Industries, Ltd., priority 1975, dated 1978)
